This passage reports T/C results from PubChem BioAssay AID248 (DTP/NCI, 2004).

This assay concerns L1210 leukemia ip in BDF1 mice, survival T/C. The assay is described as follows: NCI In Vivo Anticancer Drug Screen. Data for tumor model L1210 Leukemia (intraperitoneal) in B6D2F1 (BDF1) mice. To be noted: endpoint: mean survival time, higher = longer survival. The method in brief: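 Ratio derived from survival: compound-dosed mice over vehicle-dosed mice, all bearing a transplantable tumor.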

Where [1] appears, read: dose: 100.0 mg/kg/injection, schedule: Q04DX003 (ip), vehicle: saline.
Where [2] appears, read: dose: 100.0 mg/kg/injection, schedule: Q01DX009 (ip), vehicle: saline with Tween-80.
Where [3] appears, read: dose: 200.0 mg/kg/injection, schedule: Q01DX009 (ip), vehicle: saline with Tween-80.
[4] abbreviates: dose: 400.0 mg/kg/injection, schedule: Q01DX009 (ip), vehicle: saline with Tween-80.

Several values for one entry are separate records, joined by “and”; a condition that tells them apart may be missing. Equal values may be shown once. Toxic doses and inconclusive results are not listed.

For `O=C(COCc1ccccc1)OCc1ccccc1`, the T/C was 100 % of control (dose: 100.0 mg/kg/injection, schedule: Q01DX009 (ip), vehicle: saline sonified); 90 % of control (dose: 100.0 mg/kg/injection, schedule: Q04DX003 (ip), vehicle: saline sonified); 98 % of control under setting [1]; 102 % of control (dose: 200.0 mg/kg/injection, schedule: Q01DX009 (ip), vehicle: saline sonified); 114 % of control (dose: 200.0 mg/kg/injection, schedule: Q04DX003 (ip), vehicle: saline sonified); 94 % of control (dose: 200.0 mg/kg/injection, schedule: Q04DX003 (ip), vehicle: saline). For the same molecule, the T/C (dose: 400.0 mg/kg/injection, schedule: Q01DX009 (ip), vehicle: saline sonified) was 98 % of control; the T/C (dose: 400.0 mg/kg/injection, schedule: Q04DX003 (ip), vehicle: saline sonified) is 106 % of control; the T/C (dose: 400.0 mg/kg/injection, schedule: Q04DX003 (ip), vehicle: saline) is 94 % of control.
Regarding `O=NN(CCCl)C(=O)Nc1ccc2c(c1)-c1ccccc1C2`, the T/C runs as follows: (dose: 118.0 mg/kg/injection, schedule: Q01DX001 (ip), vehicle: carboxymethylcellulose (CMC)) 121 % of control; (dose: 118.0 mg/kg/injection, schedule: Q01DX009 (ip), vehicle: carboxymethylcellulose (CMC)) 188 % of control and 196 % of control; (dose: 177.0 mg/kg/injection, schedule: Q01DX009 (ip), vehicle: carboxymethylcellulose (CMC)) 122 % of control; (dose: 266.0 mg/kg/injection, schedule: Q01DX009 (ip), vehicle: carboxymethylcellulose (CMC)) 88 % of control; (dose: 400.0 mg/kg/injection, schedule: Q01DX001 (ip), vehicle: carboxymethylcellulose (CMC)) 159 % of control; (dose: 400.0 mg/kg/injection, schedule: Q01DX009 (ip), vehicle: carboxymethylcellulose (CMC)) 92 % of control and 113 % of control. Also, the T/C (dose: 600.0 mg/kg/injection, schedule: Q01DX001 (ip), vehicle: carboxymethylcellulose (CMC)) was 150 % of control.
Take `O=C(COCC(=O)N/N=C/c1ccc(Cl)c(Cl)c1)N/N=C/c1ccc(Cl)c(Cl)c1`: the T/C runs as follows: (dose: 6.25 mg/kg/injection, schedule: Q01DX009 (ip), vehicle: saline with Tween-80) 92 % of control; (dose: 12.5 mg/kg/injection, schedule: Q01DX009 (ip), vehicle: saline with Tween-80) 90 % of control; (dose: 25.0 mg/kg/injection, schedule: Q01DX009 (ip), vehicle: saline with Tween-80) 89 % of control; (dose: 200.0 mg/kg/injection, schedule: Q04DX003 (ip), vehicle: saline with Tween-80) 86 % of control.
With `O=C(CN1CCCCC1)Nc1ccc(S(=O)(=O)c2ccc([N+](=O)[O-])cc2)cc1`, under “dose: 75.0 mg/kg/injection, schedule: Q01DX001 (ip), vehicle: saline”, the T/C was 87 % of control.
Turning to `CCN(CC)CC(=O)NCC(C)(CCN1CCCCC1)c1cccc2ccccc12` (stereo unspecified), the T/C runs as follows: (dose: 25.0 mg/kg/injection, schedule: Q01DX009 (ip), vehicle: saline) 91 % of control; (dose: 50.0 mg/kg/injection, schedule: Q01DX009 (ip), vehicle: saline) 93 % of control; under setting [1], 94 % of control.
Take `ClC1=NC(c2ccccc2)N2C(Cl)C12` (stereo unspecified): the T/C reads like this: (dose: 100.0 mg/kg/injection, schedule: Q01DX001 (ip), vehicle: saline with Tween-80) 103 % of control; under setting [2], 104 % of control; (dose: 200.0 mg/kg/injection, schedule: Q01DX001 (ip), vehicle: saline with Tween-80) 95 % of control; under setting [3], 98 % of control; (dose: 400.0 mg/kg/injection, schedule: Q01DX001 (ip), vehicle: saline with Tween-80) 95 % of control; under setting [4], 104 % of control.
`O=C(/C=C/c1ccccc1)N1CCCCC1`: the T/C under setting [2] was 93 % of control; the T/C (dose: 100.0 mg/kg/injection, schedule: Q04DX002 (ip), vehicle: Klucel (hydroxypropylcellulose) (HPC)) is 108 % of control; the T/C under setting [3] is 95 % of control; the T/C (dose: 200.0 mg/kg/injection, schedule: Q04DX002 (ip), vehicle: Klucel (hydroxypropylcellulose) (HPC)) was 101 % of control; the T/C under setting [4] was 102 % of control.
Turning to `CN(C)C(=S)Oc1ccc(S(=O)(=O)F)c(Cl)c1Cl`, the T/C is 92 % of control (dose: 25.0 mg/kg/injection, schedule: Q04DX002 (ip), vehicle: saline with Tween-80); 92 % of control (dose: 50.0 mg/kg/injection, schedule: Q04DX002 (ip), vehicle: saline with Tween-80); 86 % of control (dose: 100.0 mg/kg/injection, schedule: Q04DX002 (ip), vehicle: saline with Tween-80).
As for `CCCCCCCCCCCC(c1ccccc1)[N+](C)(C)C` (stereo unspecified), the T/C (dose: 0.5 mg/kg/injection, schedule: Q01DX001 (ip), vehicle: saline) was 103 % of control; the T/C (dose: 1.0 mg/kg/injection, schedule: Q01DX001 (ip), vehicle: saline) was 94 % of control; the T/C (dose: 1.0 mg/kg/injection, schedule: Q01DX009 (ip), vehicle: saline) is 91 % of control; the T/C (dose: 2.0 mg/kg/injection, schedule: Q01DX001 (ip), vehicle: saline) was 100 % of control; the T/C (dose: 2.0 mg/kg/injection, schedule: Q01DX009 (ip), vehicle: saline) was 109 % of control; the T/C (dose: 4.0 mg/kg/injection, schedule: Q01DX001 (ip), vehicle: saline) was 96 % of control. The T/C was 110 % of control (dose: 4.0 mg/kg/injection, schedule: Q01DX009 (ip), vehicle: saline) and 97 % of control (dose: 8.0 mg/kg/injection, schedule: Q01DX001 (ip), vehicle: saline).
